Data from US11725012B2, “Imidazo[1,5-a]pyrazine derivatives as PI3K δ inhibitors” (priority 2016, dated 2023).

Tests used:
Assay type in all cases: biochemical
[1] = biological target: recombinant PI3K (p110δ/p85α) (Homo sapiens, UniProt O00329); experiment: PI3Kδ ADP-Glo kinase assay; settings: read-out: PI3Kδ Enzyme activity IC50
Description: Compounds disclosed herein were tested for inhibition of PI3Kδ kinase activity using commercial ADP-Glo™ Kinase Assay (Promega Corporation) and following the manufacture's instruction. Briefly, recombinant PI3K (p110δ/p85α) enzyme, lipid kinase substrate and a serial dilution of compounds disclosed herein were incubated for 0.5 hr at room temperature. ATP was added to initiate the kinase reaction. After incubation for 1 hr at room temperature, ADP-Glo™ reagent was added to terminate the kinase reaction and deplete the remaining ATP. After incubation for 1 hr at room temperature, kinase detection reagent was added to simultaneously convert ADP to ATP and allow the newly synthesized ATP to be measured using a luciferase/luciferin reaction. After incubation for 0.5 hr at room temperature, the luminescence generated was measured on a PHERAstar FS plate reader (BMG LABTECH), The residual enzyme activity in presence of increasing concentrations of compounds was calculated based on the luminescence. The IC50 for each compound was derived from fitting the data to the four-parameter logistic equation by Graphpad Prism software.

[2] = biological target: recombinant PI3K (p110α/p85α) (Homo sapiens, UniProt P42336); experiment: PI3Kα ADP-Glo kinase assay; settings: for IC50: read-out: PI3Kα Enzyme activity IC50; for inhibition at 0.5 µM: read-out: PI3Kα max inhibition (%) at 0.5 μM
recombinant PI3K (p110α/p85α), sequence (P42336 whole entry): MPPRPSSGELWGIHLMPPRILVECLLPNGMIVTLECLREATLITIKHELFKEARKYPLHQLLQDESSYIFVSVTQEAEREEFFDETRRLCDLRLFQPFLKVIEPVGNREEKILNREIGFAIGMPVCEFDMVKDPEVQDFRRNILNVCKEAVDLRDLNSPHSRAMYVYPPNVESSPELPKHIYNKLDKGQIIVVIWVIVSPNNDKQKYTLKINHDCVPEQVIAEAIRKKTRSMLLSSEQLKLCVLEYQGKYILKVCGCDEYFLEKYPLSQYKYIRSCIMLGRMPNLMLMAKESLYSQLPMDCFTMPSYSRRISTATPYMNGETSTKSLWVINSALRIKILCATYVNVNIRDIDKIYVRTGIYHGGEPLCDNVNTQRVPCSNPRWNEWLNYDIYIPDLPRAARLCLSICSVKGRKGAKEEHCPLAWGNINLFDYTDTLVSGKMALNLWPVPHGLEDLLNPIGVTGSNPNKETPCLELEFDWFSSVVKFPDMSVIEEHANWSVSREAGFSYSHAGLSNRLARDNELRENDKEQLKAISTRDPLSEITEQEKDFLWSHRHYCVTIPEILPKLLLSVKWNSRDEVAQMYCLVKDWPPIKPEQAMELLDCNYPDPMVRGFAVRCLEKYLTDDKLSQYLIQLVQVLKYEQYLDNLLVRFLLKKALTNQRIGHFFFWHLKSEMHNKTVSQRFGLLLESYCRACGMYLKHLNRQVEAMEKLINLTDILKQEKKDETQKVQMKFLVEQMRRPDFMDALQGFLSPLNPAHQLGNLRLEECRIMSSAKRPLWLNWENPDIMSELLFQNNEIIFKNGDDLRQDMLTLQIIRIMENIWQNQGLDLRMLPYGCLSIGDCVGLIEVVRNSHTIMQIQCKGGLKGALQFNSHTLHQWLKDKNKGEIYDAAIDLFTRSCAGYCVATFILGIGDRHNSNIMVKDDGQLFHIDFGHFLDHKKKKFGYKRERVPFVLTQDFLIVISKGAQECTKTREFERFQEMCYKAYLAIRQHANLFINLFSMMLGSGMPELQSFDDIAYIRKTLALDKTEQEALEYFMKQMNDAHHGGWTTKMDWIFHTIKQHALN
recombinant PI3K (p110α/p85α), sequence (P27986 whole entry partner): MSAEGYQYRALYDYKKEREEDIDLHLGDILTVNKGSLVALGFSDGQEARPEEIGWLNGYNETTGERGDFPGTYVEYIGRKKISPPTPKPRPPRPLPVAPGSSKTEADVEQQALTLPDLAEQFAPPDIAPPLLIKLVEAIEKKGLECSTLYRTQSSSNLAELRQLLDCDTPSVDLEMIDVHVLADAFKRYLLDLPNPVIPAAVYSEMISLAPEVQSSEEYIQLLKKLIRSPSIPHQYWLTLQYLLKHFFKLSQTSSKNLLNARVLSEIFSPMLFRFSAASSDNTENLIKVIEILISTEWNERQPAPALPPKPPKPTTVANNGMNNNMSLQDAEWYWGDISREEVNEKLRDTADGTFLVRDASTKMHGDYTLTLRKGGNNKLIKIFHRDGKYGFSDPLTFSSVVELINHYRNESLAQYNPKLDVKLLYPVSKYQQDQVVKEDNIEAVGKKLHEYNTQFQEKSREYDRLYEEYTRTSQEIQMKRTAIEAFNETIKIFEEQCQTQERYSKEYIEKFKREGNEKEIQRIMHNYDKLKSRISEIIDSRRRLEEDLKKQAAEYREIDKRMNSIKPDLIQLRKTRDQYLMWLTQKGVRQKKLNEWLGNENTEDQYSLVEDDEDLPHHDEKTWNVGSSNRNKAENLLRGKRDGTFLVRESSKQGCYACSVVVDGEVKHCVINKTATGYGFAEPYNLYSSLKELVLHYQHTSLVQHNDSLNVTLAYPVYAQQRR

PI3K (p110β/p85α) = PI3K (p110β/p85α) (Homo sapiens, UniProt P42338); experiment: PI3Kβ ADP-Glo kinase assay; settings: for IC50: read-out: PI3Kβ Enzyme activity IC50
PI3K (p110β/p85α), sequence (P42338 whole entry): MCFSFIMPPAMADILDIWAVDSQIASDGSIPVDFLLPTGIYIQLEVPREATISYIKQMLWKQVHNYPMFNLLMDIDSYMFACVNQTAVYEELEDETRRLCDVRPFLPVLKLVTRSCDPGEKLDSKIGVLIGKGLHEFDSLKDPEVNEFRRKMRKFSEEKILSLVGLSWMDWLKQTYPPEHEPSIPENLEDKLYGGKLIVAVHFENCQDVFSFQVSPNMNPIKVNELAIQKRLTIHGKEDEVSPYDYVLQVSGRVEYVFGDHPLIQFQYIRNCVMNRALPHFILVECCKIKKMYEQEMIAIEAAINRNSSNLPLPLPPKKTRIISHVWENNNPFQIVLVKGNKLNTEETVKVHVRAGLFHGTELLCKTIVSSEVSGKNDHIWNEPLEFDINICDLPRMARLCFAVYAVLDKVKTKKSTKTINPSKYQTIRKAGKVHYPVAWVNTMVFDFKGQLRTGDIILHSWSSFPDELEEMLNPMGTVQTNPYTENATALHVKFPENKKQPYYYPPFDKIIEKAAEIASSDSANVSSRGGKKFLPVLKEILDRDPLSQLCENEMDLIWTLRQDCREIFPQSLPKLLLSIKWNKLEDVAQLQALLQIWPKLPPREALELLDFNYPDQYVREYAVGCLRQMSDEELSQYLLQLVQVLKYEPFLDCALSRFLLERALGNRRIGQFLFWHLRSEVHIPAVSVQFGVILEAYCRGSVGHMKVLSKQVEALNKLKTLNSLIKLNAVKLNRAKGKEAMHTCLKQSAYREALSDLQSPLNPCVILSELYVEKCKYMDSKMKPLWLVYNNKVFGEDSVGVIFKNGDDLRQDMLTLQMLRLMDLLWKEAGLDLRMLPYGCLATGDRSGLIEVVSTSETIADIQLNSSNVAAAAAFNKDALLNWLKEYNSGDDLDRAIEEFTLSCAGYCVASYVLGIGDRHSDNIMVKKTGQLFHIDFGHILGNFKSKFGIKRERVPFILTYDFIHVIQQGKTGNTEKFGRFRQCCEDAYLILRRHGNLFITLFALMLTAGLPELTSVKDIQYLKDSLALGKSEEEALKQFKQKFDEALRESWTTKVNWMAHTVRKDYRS
PI3K (p110β/p85α), sequence (P27986 whole entry partner): as the sequence (P27986 whole entry partner) above

PI3K (p110γ) = PI3K (p110γ) (Homo sapiens, UniProt P48736); experiment: PI3Kγ ADP-Glo kinase assay; settings: for IC50: read-out: PI3Kγ Enzyme activity IC50; for inhibition at 0.5 µM: read-out: PI3Kγ max inhibition (%) at 0.5 μM
PI3K (p110γ), sequence (P48736 whole entry): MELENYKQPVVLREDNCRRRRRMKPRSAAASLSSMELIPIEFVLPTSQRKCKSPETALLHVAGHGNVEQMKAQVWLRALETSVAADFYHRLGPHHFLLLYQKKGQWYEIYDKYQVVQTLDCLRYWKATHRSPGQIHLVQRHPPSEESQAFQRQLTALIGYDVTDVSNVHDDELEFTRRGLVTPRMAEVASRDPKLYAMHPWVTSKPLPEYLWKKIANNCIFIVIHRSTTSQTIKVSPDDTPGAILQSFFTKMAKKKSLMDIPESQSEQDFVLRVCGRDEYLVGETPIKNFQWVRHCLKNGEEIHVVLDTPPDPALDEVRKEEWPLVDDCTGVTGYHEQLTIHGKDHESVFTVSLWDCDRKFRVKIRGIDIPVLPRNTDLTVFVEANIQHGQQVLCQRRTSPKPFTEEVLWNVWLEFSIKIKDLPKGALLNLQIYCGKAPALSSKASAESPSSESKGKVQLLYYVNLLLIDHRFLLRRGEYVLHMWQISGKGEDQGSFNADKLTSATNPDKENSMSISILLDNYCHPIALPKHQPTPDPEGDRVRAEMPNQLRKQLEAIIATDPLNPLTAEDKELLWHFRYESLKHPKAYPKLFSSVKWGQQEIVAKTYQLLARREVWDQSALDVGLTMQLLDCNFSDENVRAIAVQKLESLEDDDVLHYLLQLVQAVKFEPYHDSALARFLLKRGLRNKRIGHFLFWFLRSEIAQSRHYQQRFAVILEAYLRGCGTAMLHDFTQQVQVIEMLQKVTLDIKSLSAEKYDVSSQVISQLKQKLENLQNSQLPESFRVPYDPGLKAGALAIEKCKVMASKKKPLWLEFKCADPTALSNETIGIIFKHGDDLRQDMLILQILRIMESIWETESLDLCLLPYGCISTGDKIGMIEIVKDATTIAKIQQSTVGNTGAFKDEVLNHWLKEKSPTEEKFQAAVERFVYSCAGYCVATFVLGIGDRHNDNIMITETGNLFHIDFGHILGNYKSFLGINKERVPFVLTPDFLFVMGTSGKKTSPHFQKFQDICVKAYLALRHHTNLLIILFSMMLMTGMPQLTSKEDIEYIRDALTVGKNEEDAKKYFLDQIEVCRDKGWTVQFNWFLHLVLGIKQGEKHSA

recombinant PI3K (p110δ/p85α), sequence (O00329 whole entry): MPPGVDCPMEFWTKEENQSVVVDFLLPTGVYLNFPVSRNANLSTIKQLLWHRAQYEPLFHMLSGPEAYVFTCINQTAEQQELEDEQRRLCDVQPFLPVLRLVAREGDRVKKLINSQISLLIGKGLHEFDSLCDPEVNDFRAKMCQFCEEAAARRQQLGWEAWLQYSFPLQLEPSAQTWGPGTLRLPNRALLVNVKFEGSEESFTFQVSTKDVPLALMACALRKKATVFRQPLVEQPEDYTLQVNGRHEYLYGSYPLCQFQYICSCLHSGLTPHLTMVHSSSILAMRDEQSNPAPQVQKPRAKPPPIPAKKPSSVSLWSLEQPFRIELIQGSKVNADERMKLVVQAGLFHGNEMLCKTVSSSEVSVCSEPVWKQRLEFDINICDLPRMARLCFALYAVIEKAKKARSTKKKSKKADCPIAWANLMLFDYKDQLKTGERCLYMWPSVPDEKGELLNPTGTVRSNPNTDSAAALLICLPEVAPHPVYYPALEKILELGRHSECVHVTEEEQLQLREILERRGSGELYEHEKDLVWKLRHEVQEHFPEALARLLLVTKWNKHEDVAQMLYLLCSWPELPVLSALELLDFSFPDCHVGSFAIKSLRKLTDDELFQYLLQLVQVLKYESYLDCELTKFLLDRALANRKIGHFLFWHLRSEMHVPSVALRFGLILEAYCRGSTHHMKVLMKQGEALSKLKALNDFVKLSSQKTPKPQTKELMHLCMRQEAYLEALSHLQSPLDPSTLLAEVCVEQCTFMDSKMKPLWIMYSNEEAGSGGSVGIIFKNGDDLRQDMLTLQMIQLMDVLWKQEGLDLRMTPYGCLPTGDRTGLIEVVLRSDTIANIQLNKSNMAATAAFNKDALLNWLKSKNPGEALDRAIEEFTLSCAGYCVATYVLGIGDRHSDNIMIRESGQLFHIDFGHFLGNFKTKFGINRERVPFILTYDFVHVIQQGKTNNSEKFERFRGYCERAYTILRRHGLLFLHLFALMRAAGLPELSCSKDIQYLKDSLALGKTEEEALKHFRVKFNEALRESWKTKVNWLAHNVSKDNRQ
recombinant PI3K (p110δ/p85α), sequence (P27986 whole entry partner): as the sequence (P27986 whole entry partner) above

With `CC(C)Oc1c(C(C)c2nc(Cl)c3c(N)nccn23)cc(Cl)c(F)c1-c1ccc(C(=O)O)nc1` (single isomer, unassigned) [Compound 18B] as the compound, how does the IC50 [1] read?
The IC50 was 26 nM.

What does the source list for `CC(C)Oc1c(C(C)c2nc(Cl)c3c(N)nccn23)cc(Cl)c(F)c1C1CNC(=O)C1` (single isomer, unassigned) [Compound 48A, 4-(3-(1-(8-amino-1-chloroimidazo[1,5-a]pyrazin-3-yl)ethyl)-5-chloro-6-fluoro-2-isopropoxyphenyl)pyrrolidin-2-one]?
IC50 [1]: 0.4 nM; IC50 [2]: 4800 nM; IC50 (PI3K (p110β/p85α)): 440 nM; IC50 (PI3K (p110γ)): 800 nM

`CC(C)Oc1c(C(C)c2nc(Cl)c3c(N)nccn23)cc(Cl)c(F)c1C1CNC(=O)C1` (single isomer, unassigned) [Compound 48C, 4-(3-(1-(8-amino-1-chloroimidazo[1,5-a]pyrazin-3-yl)ethyl)-5-chloro-6-fluoro-2-isopropoxyphenyl)pyrrolidin-2-one] was tested. Which IC50 [1] did it give?
Its IC50 is 160 nM.

Which IC50 [1] does the source give for `CC(C)Oc1c(C(C)c2nc(Cl)c3c(N)nccn23)cc(Cl)c(F)c1C1CNC(=O)C1` (single isomer, unassigned) [Compound 48D, 4-(3-(1-(8-amino-1-chloroimidazo[1,5-a]pyrazin-3-yl)ethyl)-5-chloro-6-fluoro-2-isopropoxyphenyl)pyrrolidin-2-one] here?
Its IC50 is 6.8 nM.

Which results are given for `CCOc1c(C(C)c2nc(Cl)c3c(N)nccn23)cc(Cl)c(F)c1C1CCOCC1` (single isomer, unassigned) [Compound 49A, 1-chloro-3-(1-(5-chloro-2-ethoxy-4-fluoro-3-(tetrahydro-2H-pyran-4-yl)phenyl)ethyl)imidazo[1,5-a]pyrazin-8-amine]?
IC50 [1]: 0.49 nM; IC50 [2]: 2100 nM; IC50 (PI3K (p110β/p85α)): 260 nM; IC50 (PI3K (p110γ)): 440 nM

Which IC50 [1] does the source give for `CCOc1c(C(C)c2nc(Cl)c3c(N)nccn23)cc(Cl)c(F)c1C1CCOCC1` (single isomer, unassigned) [Compound 49B, 1-chloro-3-(1-(5-chloro-2-ethoxy-4-fluoro-3-(tetrahydro-2H-pyran-4-yl)phenyl)ethyl)imidazo[1,5-a]pyrazin-8-amine] here?
The IC50 was 26 nM.

For `CCOc1c(C(C)c2nc(Cl)c3c(N)nccn23)cc(Cl)c(C)c1N1CCOCC1` (single isomer, unassigned) [Compound 51B, 1-chloro-3-(1-(5-chloro-2-ethoxy-4-methyl-3-morpholinophenyl)ethyl)imidazo[1,5-a]pyrazin-8-amine], which IC50 [1] is on record?
The IC50 was 320 nM.

Which IC50 [1] does the source give for `Cc1nc(C(C)c2cc(Cl)c(F)c(-c3ccc(C#N)nc3)c2OC(C)C)n2ccnc(N)c12` (single isomer, unassigned) [Compound 59B, 5-(3-(1-(8-amino-1-methylimidazo[1,5-a]pyrazin-3-yl)ethyl)-5-chloro-6-fluoro-2-isopropoxyphenyl)picolinonitrile] here?
The IC50 was 240 nM.

`COc1c(C(C)c2ncc3c(N)nccn23)cc(Cl)c(C)c1-c1cccnc1` (stereo not drawn) [Compound 1, 3-(1-(5-chloro-2-methoxy-4-methyl-3-(pyridin-3-yl)phenyl)ethyl)imidazo[1,5-a]pyrazine-8-amine] was tested. Which IC50 [1] did it give?
Its IC50 is 150 nM.

What about the inhibition at 0.5 µM (PI3K (p110β/p85α); read-out: PI3Kβ max inhibition (%) at 0.5 μM) of the same compound?
The inhibition at 0.5 µM was 6%.

And the inhibition at 0.5 µM (PI3K (p110γ))?
Its inhibition at 0.5 µM is -27%.

Which IC50 [1] does the source give for `COc1c(C(C)c2nc(Br)c3c(N)nccn23)cc(Cl)c(C)c1-c1cccnc1` (stereo not drawn) [Compound 2, 1-bromo-3-(1-(5-chloro-2-methoxy-4-methyl-3-(pyridin-3-yl)phenyl)ethyl)imidazo[1,5-a]pyrazin-8-amine] here?
The IC50 was 1.5 nM.

What about the IC50 [2] of the same compound?
Its IC50 is 560 nM.

What about the inhibition at 0.5 µM (PI3K (p110γ)) of the same compound?
The inhibition at 0.5 µM was 37%.

How did the IC50 [1] turn out when `COc1c(C(C)c2nc(-c3ccccc3)c3c(N)nccn23)cc(Cl)c(C)c1-c1cccnc1` (stereo not drawn) [Compound 3, 3-(1-(5-chloro-2-methoxy-4-methyl-3-(pyridin-3-yl)phenyl)ethyl)-1-phenylimidazo[1,5-a]pyrazin-8-amine] was run?
The IC50 was 150 nM.

Which IC50 [1] does the source give for `COc1c(C(C)c2nc(-c3cccc(O)c3)c3c(N)nccn23)cc(Cl)c(C)c1-c1cccnc1` (stereo not drawn) [Compound 4, 3-(8-amino-3-(1-(5-chloro-2-methoxy-4-methyl-3-(pyridin-3-yl)phenyl)ethyl)imidazo[1,5-a]pyrazin-1-yl)phenol] here?
Its IC50 is 7.5 nM.

What about the inhibition at 0.5 µM [2] of the same compound?
The inhibition at 0.5 µM was 20%.

And the inhibition at 0.5 µM (PI3K (p110γ))?
The inhibition at 0.5 µM was 9%.

Which IC50 [1] does the source give for `COc1c(C(C)c2nc(Br)c3c(N)ncc(Cl)n23)cc(Cl)c(C)c1-c1cccnc1` (stereo not drawn) [Compound 5, 1-bromo-5-chloro-3-(1-(5-chloro-2-methoxy-4-methyl-3-(pyridin-3-yl)phenyl)ethyl) imidazo[1,5-a]pyrazin-8-amine] here?
The IC50 was 18 nM.

And the inhibition at 0.5 µM [2]?
Its inhibition at 0.5 µM is 19%.

What about the inhibition at 0.5 µM (PI3K (p110γ)) of the same compound?
The inhibition at 0.5 µM was 44%.

Which results are given for `COc1c(C(C)c2nc(Cl)c3c(N)nccn23)cc(Cl)c(C)c1-c1cccnc1` (stereo not drawn) [Compound 6, 1-chloro-3-(1-(5-chloro-2-methoxy-4-methyl-3-(pyridin-3-yl)phenyl)ethyl)imidazo[1,5-a]pyrazin-8-amine]?
IC50 [1]: 2 nM; inhibition at 0.5 µM [2]: 34%; inhibition at 0.5 µM (PI3K (p110γ)): 52%

What does the source list for `CCOc1c(C(C)c2nc(Br)c3c(N)nccn23)cc(Cl)c(C)c1-c1ccc(C)nc1` (stereo not drawn) [Compound 7, 1-bromo-3-(1-(5-chloro-2-ethoxy-4-methyl-3-(6-methylpyridin-3-yl)phenyl)ethyl) imidazo[1,5-a]pyrazin-8-amine]?
IC50 [1]: 1.9 nM; IC50 [2]: 420 nM; IC50 (PI3K (p110γ)): 200 nM

How did the IC50 [1] turn out when `CCOc1c([C@@H](C)c2nc(Cl)c3c(N)nccn23)cc(Cl)c(C)c1-c1ccc(C)nc1` [Compound 8B] was run?
Its IC50 is 170 nM.

With `CCOc1c(C(C)c2nc(Br)c3c(N)nccn23)cc(Cl)c(C)c1-c1ccc(Cl)cc1` (stereo not drawn) [Compound 9, 1-bromo-3-(1-(4′,5-dichloro-2-ethoxy-6-methyl-[1,1′-biphenyl]-3-yl)ethyl)imidazo[1,5-a]pyrazin-8-amine] as the compound, how does the IC50 [1] read?
The IC50 was 100 nM.

Which IC50 [1] does the source give for `CC(C)Oc1c([C@@H](C)c2nc(Cl)c3c(N)nccn23)cc(Cl)c(F)c1-c1ccc(C(=O)N(C)C)nc1` [Compound 16B] here?
Its IC50 is 62 nM.

Which IC50 [1] does the source give for `CC(C)Oc1c([C@@H](C)c2nc(Cl)c3c(N)nccn23)cc(Cl)c(F)c1-c1ccc(C(N)=O)nc1` [Compound 17A] here?
The IC50 was 91 nM.

Which IC50 [1] does the source give for `COc1c(C(C)c2nc(Br)c3c(N)nccn23)cc(Cl)c(C)c1-c1c(C)noc1C` (stereo not drawn) [Compound 21, 1-bromo-3-(1-(5-chloro-3-(3,5-dimethylisoxazol-4-yl)-2-methoxy-4-methylphenyl)ethyl)imidazo[1,5-a]pyrazin-8-amine] here?
The IC50 was 3.3 nM.

And the IC50 [2]?
Its IC50 is 2000 nM.

And the IC50 (PI3K (p110γ))?
Its IC50 is 1500 nM.

For `CCOc1c([C@@H](C)c2nc(Cl)c3c(N)nccn23)cc(Cl)c(C)c1-c1ccc(Cl)nc1` [Compound 27B], which IC50 [1] is on record?
The IC50 was 500 nM.

How did the IC50 [1] turn out when `CCOc1c(C(C)c2nc(C)c3c(N)nccn23)cc(F)c(Cl)c1-c1ccc(C(F)(F)F)nc1` (stereo not drawn) [Compound 34, 3-(1-(4-chloro-2-ethoxy-5-fluoro-3-(6-(trifluoromethyl)pyridin-3-yl)phenyl)ethyl)-1-methylimidazo[1,5-a]pyrazin-8-amine] was run?
Its IC50 is 43 nM.

With `Cc1c(Cl)cc([C@@H](C)c2nc(Br)c3c(N)nccn23)c(OC(C)C)c1-c1ccc(C(F)(F)F)nc1` [Compound 38B] as the compound, how does the IC50 [1] read?
Its IC50 is 2100 nM.

For `CC(C)Oc1c([C@@H](C)c2nc(Cl)c3c(N)nccn23)cc(Cl)c(F)c1-c1ccc(C(F)(F)F)nc1` [Compound 40B], which IC50 [1] is on record?
Its IC50 is 150 nM.

How did the IC50 [1] turn out when `CCOc1c([C@@H](C)c2nc(Cl)c3c(N)nccn23)cc(Cl)c(F)c1-c1ccc(C(F)(F)F)nc1` [Compound 41B] was run?
Its IC50 is 350 nM.

`CCCOc1c([C@@H](C)c2nc(Cl)c3c(N)nccn23)cc(Cl)c(F)c1-c1ccc(C(F)(F)F)nc1` [Compound 42B] was tested. Which IC50 [1] did it give?
Its IC50 is 330 nM.

How did the IC50 [1] turn out when `CCOc1c([C@@H](C)c2nc(Cl)c3c(N)nccn23)cc(Cl)c(F)c1-c1ccc(C(F)(F)F)nc1OC` [Compound 43B] was run?
Its IC50 is > 1000 nM.

With `CCOc1c(C(C)c2nc(-c3ccc(OC)cc3)c3c(N)nccn23)cc(Cl)c(C)c1-c1ccc(OC)cc1` (stereo not drawn) [Compound 44, 3-(1-(5-chloro-2-ethoxy-4′-methoxy-6-methyl-[151′-biphenyl]-3-yl)ethyl)-1-(4-methoxyphenyl)imidazo[1,5-a]pyrazin-8-amine] as the compound, how does the IC50 [1] read?
The IC50 was 380 nM.

How did the IC50 [1] turn out when `CCOc1c(C(C)c2nc(Cl)c3c(N)nccn23)cc(Cl)c(F)c1C1CCOCC1` (stereo not drawn) [Compound 49, 1-chloro-3-(1-(5-chloro-2-ethoxy-4-fluoro-3-(tetrahydro-2H-pyran-4-yl)phenyl)ethyl)imidazo[1,5-a]pyrazin-8-anine] was run?
The IC50 was 3.1 nM.

`COc1c(C(C)c2nc(C)c3c(N)nccn23)cc(Cl)c(C)c1-c1cccnc1` (stereo not drawn) [Compound 52, 3-(1-(5-chloro-2-methoxy-4-methyl-3-(pyridin-3-yl)phenyl)ethyl)-1-methyl imidazo[1,5-a]pyrazin-8-amine] was tested. Which IC50 [1] did it give?
Its IC50 is 7.7 nM.

And the inhibition at 0.5 µM [2]?
Its inhibition at 0.5 µM is 6%.

What about the inhibition at 0.5 µM (PI3K (p110γ)) of the same compound?
The inhibition at 0.5 µM was -11%.

With `COc1c(C(C)c2nc(C3CC3)c3c(N)nccn23)cc(Cl)c(C)c1-c1cccnc1` (stereo not drawn) [Compound 53, 3-(1(5-chloro-2-methoxy-4-methyl-3-(pyridin-3-yl)phenyl)ethyl)-1-cyclopropyl imidazo[1,5-a]pyrazin-8-amine] as the compound, how does the IC50 [1] read?
Its IC50 is 1900 nM.

With `Cc1nn(C(C)c2cc(Cl)c(C#N)c(=O)n2-c2ccccc2)c2ncnc(N)c12` (stereo not drawn) [Compound 55, 6-(1-(4-amino-3-methyl-1H-pyrazolo[3,4-d]pyrimidin-1-yl)ethyl)-4-chloro-2-oxo-1-phenyl-1,2-dihydropyridine-3-carbonitrile] as the compound, how does the IC50 [1] read?
Its IC50 is 450 nM.
